Reference: paper PMC8658889, “Seriniquinones as Therapeutic Leads for Treatment of BRAF and NRAS Mutant Melanomas” (Molecules, 2021)

Tested on: melanoma cells
Assay: MTT cytotoxicity assay, melanoma panel
Assay type: cell-based, Human
Text: Human cell lines were used throughout this program. SK-MEL-19 (melanoma BRAF^V600E, NRAS^WT), SK-MEL-28 (melanoma BRAF^V600E, NRAS^WT), SK-MEL-147 (melanoma BRAF^WT, NRAS^Q61R), MRC-5 (fibroblasts), and primary fibroblast (FDH) were kindly provided by Professor Glaucia Santelli (University of São Paulo, Brazil). MCF7 (breast adenocarcinoma, ATCC HTB-22), and HCT-116 (colorectal carcinoma, ATCC 247) cells were obtained from American Type Culture Collection (ATCC) and deposited in the Cell Bank of Rio de Janeiro, Brazil. WM293A (metastatic melanoma BRAF^V600D, NRAS^WT), 501mel (metastatic melanoma BRAF^V600E; NRAS^G12D), and MM200 (melanoma BRAF^V600E, NRAS^WT) were kindly provided by Professor Sharon Prince, University of Cape Town, South Africa. All human melanoma and breast cell lines were cultivated with Dulbecco’s Modified Eagle Medium: Nutrient Mixture F-12 (Thermo Fisher Scientific, San Jose, CA, USA). MM200 and HCT-116 were maintained with Roswell Park Memorial Institute (RPMI) medium (Thermo Fisher Scientific, San Jose, CA, USA). Unless stated otherwise, media was supplemented with 10% fetal bovine serum (FBS) and 1% penicillin-streptomycin (Thermo Fisher Scientific, San Jose, CA, USA). Cells were incubated with 5% CO2 at 37 °C. When required, cells were detached from flask using trypsin-EDTA 0.05% (Thermo Fisher Scientific, San Jose, CA, USA).
Cytotoxic activity was evaluated by the transformation of 3-(4,5-dimethylthiazol-2-yl)-2,5-diphenyltetrazolium bromide (MTT; Thermo Fisher Scientific, San Jose, CA, USA) into formazan by viable cells. Cells were plated in a 96-well plate (1 × 10^4 cells/well) and, 24 h later, exposed to serial dilutions of the test compounds (from 0.00032 to 5.0 µM) for 24, 48, and 72 h. For each analysis, negative controls received 0.5% DMSO and positive control was delivered by doxorubicin (DOX; 0.05 to 10.0 µM). At the end of the incubation periods, the medium was replaced with fresh medium containing 0.5 mg/mL of MTT and supernatant was removed 3 h later. The plates were dried at 50 °C for 30 min and formazan was solubilized in DMSO (150 µL/well) for the absorbance measure at 570 nm on a plate reader (Thermo Fisher Scientific, San Jose, CA, USA). IC50 values (half-maximal inhibitory concentration) along with 95% CI (confidence intervals) were calculated by non-linear regression using GraphPad Prism 8.0 software (GraphPad Software, Inc., San Diego, CA, USA).

CC(C)(O)C(O)CCc1ccc2c(=O)c3sc4c(=O)c5ccccc5c(=O)c4c3c(=O)c2c1 (centres unmarked) [SQ2]
selectivity indices to SK-Mel cells in relation to non-tumor cell lines (SK-Mel cells versus non-tumor cell lines): ≥ twofold
selectivity for melanoma cells (SI ratio) (melanoma cells versus non-tumor cell lines MRC-5 or FDH, highest values reached): 30–40
